Experimental data from US6162803A, “Indol-3-yl-cyclohexyl amine derivatives for the treatment of depression” (American Home Products Corp., priority 1999, dated 2000).

What was measured:
serotonin transporter = biological target: T1, serotonin transporter (Rattus norvegicus, UniProt P31652); assay: [3H]-paroxetine binding, affinity for the serotonin transporter (rat frontal cortical membranes); parameters: species or system male Sprague-Dawley rats; settings: 3H-paroxetine (0.1 nM); for Ki: 60 min at 25° C., read-out: Ki (nM) ST [^3 H]paroxetine
T1 construct: frontal cortical membranes prepared from male Sprague-Dawley rats; from tissue; host or cells: frontal cortical membranes of male Sprague-Dawley rats
Procedure: A protocol similar to that used by Cheetham et al., Neuropharmacol., 32:737 (1993) was used to determine the affinity of compounds for the serotonin transporter. Briefly, frontal cortical membranes prepared from male Sprague-Dawley rats were incubated with ^3 H-paroxetine (0.1 nM) for 60 min at 25° C. All tubes also contained either vehicle, test compound (one to eight concentrations), or a saturating concentration of fluoxetine (10 μM) to define […]. All reactions are terminated by the addition of ice cold Tris buffer followed by rapid filtration using a Tom Tech filtration device to separate bound from free ^3 H-paroxetine. Bound radioactivity was quantitated using a Wallac 1205 Beta Plate® counter. Nonlinear regression analysis was used to determine IC50 values which were converted to Ki values using the method of Cheng and Prusoff, Biochem. Pharmacol., 22:3099 (1973); Ki=IC50/((Radioligand conc.)/(1+KD)).

human 5-HT1A receptor = biological target: T2, human 5-HT1A receptor (Homo sapiens, UniProt P08908); assay: [3H]8-OH-DPAT competition binding at human 5-HT1A receptor (5-HT1A.CHO cell membranes); settings: [3H]8-OH-DPAT 1.5 nM; for inhibition at 1 µM: 0.5 h
T2 construct: expressed in transfected cells; host or cells: Chinese hamster ovary cells (5-HT1A.CHO), membranes
T2 sequence (P08908 1-422): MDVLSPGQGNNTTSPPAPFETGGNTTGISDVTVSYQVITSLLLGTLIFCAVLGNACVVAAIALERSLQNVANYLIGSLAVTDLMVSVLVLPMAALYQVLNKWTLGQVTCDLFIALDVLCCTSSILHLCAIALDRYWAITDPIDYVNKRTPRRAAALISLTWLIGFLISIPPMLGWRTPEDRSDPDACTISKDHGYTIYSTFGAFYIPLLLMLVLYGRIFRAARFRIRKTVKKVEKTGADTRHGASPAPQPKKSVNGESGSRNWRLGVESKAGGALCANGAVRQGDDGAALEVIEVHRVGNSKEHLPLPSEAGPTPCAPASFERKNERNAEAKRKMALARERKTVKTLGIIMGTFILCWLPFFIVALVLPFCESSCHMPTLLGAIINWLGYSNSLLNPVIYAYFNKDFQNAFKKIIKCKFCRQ
Procedure: The PCR cloning of the human 5-HT1A receptor subtype from a human genomic library has been described previously Chanda et al., Mol. Pharmacol., 43:516 (1993). A stable Chinese hamster ovary cell line expressing the human 5-HT1A receptor subtype (5-HT1A.CHO cells) was employed throughout this study. Cells were maintained in DMEM supplemented with 10% foetal calf serum, non-essential amino acids and penicillin/streptomycin.
Cells were grown to 95-100% confluency as a monolayer before membranes were harvested for binding studies. Cells were gently scraped from the culture plates, transferred to centrifuge tubes, and washed twice by centrifugation (2000 rpm for 10 min., 4° C.) in buffer (50 mM Tris; pH 7.5). The resulting pellets were aliquoted and placed at -80° C. On the day of assay, the cells were thawed on ice, and resuspended in buffer. Studies were conducted using [^3 H]8-OH-DPAT as the radioligand. The binding assay was performed in 96 well microtiter plates in a final total volume of 250 μL of buffer. Competition experiments were performed by using 7 concentrations of unlabelled drug and a final ligand concentration of 1.5 nM. Non-specific binding was determined in the presence of 10 μM 5HT. Saturation analysis was conducted by using [^3 H]8-OH-DPAT at concentrations ranging from 0.3-30 nM. Following a 30 minute incubation at room temperature, the reaction was terminated by the addition of ice cold buffer and rapid filtration using a M-96 Brandel Cell Harvester (Gaithersburg, Md) through a GF/B filter presoaked for 30 minutes in 0.5% polyethyleneimine.

T1 sequence (P31652 whole entry): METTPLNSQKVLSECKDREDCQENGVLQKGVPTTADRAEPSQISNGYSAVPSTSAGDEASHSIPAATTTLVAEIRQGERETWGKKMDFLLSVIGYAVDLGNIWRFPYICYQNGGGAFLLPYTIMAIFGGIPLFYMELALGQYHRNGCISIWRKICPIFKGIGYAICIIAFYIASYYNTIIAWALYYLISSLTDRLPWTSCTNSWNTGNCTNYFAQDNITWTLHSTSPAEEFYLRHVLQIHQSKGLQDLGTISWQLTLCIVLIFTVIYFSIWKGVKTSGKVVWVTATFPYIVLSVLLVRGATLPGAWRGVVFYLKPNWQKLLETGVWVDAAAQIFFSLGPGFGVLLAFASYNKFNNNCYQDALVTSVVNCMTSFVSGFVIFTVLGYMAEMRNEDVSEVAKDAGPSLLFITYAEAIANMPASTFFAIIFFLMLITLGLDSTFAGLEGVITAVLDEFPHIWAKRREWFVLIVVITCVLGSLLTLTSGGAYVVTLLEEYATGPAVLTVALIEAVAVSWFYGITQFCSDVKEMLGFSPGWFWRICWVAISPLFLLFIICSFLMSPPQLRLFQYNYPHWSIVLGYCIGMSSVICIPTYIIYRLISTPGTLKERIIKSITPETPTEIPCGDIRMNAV

Structure (SMILES) | Ki (serotonin transporter) | inhibition at 1 µM (human 5-HT1A receptor) | inhibition at 1 µM (serotonin transporter; 1 h, @ 1 μM, read-out: ST [^3 H]paroxetine, % @ 1 μM) | Ki (human 5-HT1A receptor; 30 minute incubation at room temperature)
Fc1ccc2[nH]cc([C@H]3CC[C@H](NCC4CNc5ccccc5O4)CC3)c2c1 (relative stereo) [1 (trans), (3,4-Dihydro-benzo[1,4]oxazine-2-ylmethyl)-[trans-4-(5-fluoro-1H-indol-3-yl)-cyclohexyl]-amine] | 24 nM | 44% | – | –
Fc1ccc2[nH]cc([C@H]3CC[C@@H](NCC4COc5ccccc5N4)CC3)c2c1 (relative stereo) [2 (cis), (3,4-Dihydro-benzo[1,4]oxazine-3-ylmethyl)-[cis-4-(5-fluoro-1H-indol-3-yl)-cyclohexyl]-amine] | – | 9% | 34% | –
Fc1ccc2[nH]cc([C@H]3CC[C@H](NCC4COc5ccccc5N4)CC3)c2c1 (relative stereo) [2 (trans), (3,4-Dihydro-benzo[1,4]oxazine-3-ylmethyl)-[trans-4-(5-fluoro-1H-indol-3-yl)-cyclohexyl]-amine] | 10 nM | 20% | – | –
Fc1ccc2[nH]cc([C@H]3CC[C@@H](NCC4CNc5ccccc5O4)CC3)c2c1 (stereo partly drawn) [1 (cis), (3,4-Dihydro-benzo[1,4]oxazine-2-ylmethyl)-[cis-4-(5-floro-1H-indol-3-yl)-cyclohexyl]-amine] | 44 nM | – | – | 2430 nM
